Assay results reported in ChEMBL document CHEMBL1141701, “N-alkyl-5H-pyrido[4,3-b]indol-1-amines and derivatives as novel urotensin-II receptor antagonists” (Bioorg Med Chem Lett, 2008).
≈ marks a conversion by molar mass, not a printed value.

Legend:
Urotensin-2 receptor [1] = molecular target: T1, Urotensin-2 receptor (Homo sapiens, UniProt Q9UKP6); assay: Displacement of [125I]human urotensin 2 from human recombinant urotensin 2 receptor expressed in HEK293 cells; assay type: cell-based
T1 sequence (Q9UKP6 whole entry): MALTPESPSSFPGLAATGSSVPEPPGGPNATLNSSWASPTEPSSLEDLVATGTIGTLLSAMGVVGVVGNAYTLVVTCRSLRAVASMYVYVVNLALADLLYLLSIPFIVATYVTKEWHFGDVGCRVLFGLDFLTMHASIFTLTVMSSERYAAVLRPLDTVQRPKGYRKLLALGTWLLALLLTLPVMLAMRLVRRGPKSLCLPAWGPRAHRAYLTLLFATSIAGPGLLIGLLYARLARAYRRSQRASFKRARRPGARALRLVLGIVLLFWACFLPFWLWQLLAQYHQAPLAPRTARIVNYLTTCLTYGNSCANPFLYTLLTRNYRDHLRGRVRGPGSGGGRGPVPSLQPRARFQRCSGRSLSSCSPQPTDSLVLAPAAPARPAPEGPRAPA

Urotensin-2 receptor [2] = molecular target: T1, Urotensin-2 receptor; assay: Antagonist activity at human urotensin 2 receptor by FLIPR assay; assay type: functional; settings: read-out: pA2 (converted)
Urotensin II receptor = molecular target: T2, Urotensin II receptor (Felis catus, UniProt Q533H1); assay: Displacement of [125I]human urotensin 2 from cat urotensin 2 receptor expressed in HEK293 cells; assay type: cell-based
T2 sequence (Q533H1 whole entry): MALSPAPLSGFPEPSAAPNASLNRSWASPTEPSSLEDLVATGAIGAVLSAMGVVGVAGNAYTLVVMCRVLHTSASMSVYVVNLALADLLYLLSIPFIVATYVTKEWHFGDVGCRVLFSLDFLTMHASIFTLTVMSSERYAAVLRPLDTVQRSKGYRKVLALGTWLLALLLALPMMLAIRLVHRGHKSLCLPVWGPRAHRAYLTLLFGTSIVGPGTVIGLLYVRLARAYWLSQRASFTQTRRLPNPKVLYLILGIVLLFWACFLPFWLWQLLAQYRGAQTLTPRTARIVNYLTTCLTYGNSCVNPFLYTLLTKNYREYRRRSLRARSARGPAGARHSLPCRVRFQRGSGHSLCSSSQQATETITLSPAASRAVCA

Urotensin-2 receptor [3] = molecular target: T1, Urotensin-2 receptor; assay: Antagonist activity at human recombinant urotensin 2 receptor expressed in HEK293 cells assessed as inhibition of […] calcium mobilization by FLIPR assay; assay type: functional, cell-based
[4] = Aqueous solubility in phosphate buffer by HPLC; assay type: physicochemical
[5] = Permeability across artificial phospholipid membrane by HPLC; assay type: ADME; settings: not told; read-out: permeability
[6] = Selectivity for human urotensin 2 receptor over 5HT1A receptor
[7] = Selectivity for human urotensin 2 receptor over 5HT1B receptor
[8] = Selectivity for human urotensin 2 receptor over 5HT1D receptor
[9] = Selectivity for human urotensin 2 receptor over 5HT2A receptor
[10] = Selectivity for human urotensin 2 receptor over 5HT2C receptor
[11] = Selectivity for human urotensin 2 receptor over 5HT3 receptor
[12] = Selectivity for human urotensin 2 receptor over 5HT4A receptor
[13] = Selectivity for human urotensin 2 receptor over 5HT6 receptor
[14] = Selectivity for human urotensin 2 receptor over 5HT7 receptor
[15] = Selectivity for human urotensin 2 receptor over histamine H1 receptor
[16] = Selectivity for human urotensin 2 receptor over histamine H3 receptor
[17] = Selectivity for human urotensin 2 receptor over dopamine D2 receptor
[18] = Selectivity for human urotensin 2 receptor over dopamine D3 receptor
[19] = Selectivity for human urotensin 2 receptor over adrenergic alpha1A receptor
[20] = Selectivity for human urotensin 2 receptor over adrenergic Alpha-1B receptor
[21] = Selectivity for human urotensin 2 receptor over adrenergic beta2 receptor
[22] = Selectivity for human urotensin 2 receptor over adenosine A1 receptor
[23] = Selectivity for human urotensin 2 receptor over adenosine A2a receptor
[24] = Selectivity for human urotensin 2 receptor over adenosine A2b receptor
[25] = Selectivity for human urotensin 2 receptor over muscarinic M1 receptor
[26] = Selectivity for human urotensin 2 receptor over muscarinic M2 receptor
[27] = Selectivity for human urotensin 2 receptor over muscarinic M3 receptor
[28] = Selectivity for human urotensin 2 receptor over muscarinic M4 receptor
[29] = Selectivity for human urotensin 2 receptor over muscarinic M5 receptor
[30] = Selectivity for human urotensin 2 receptor over CXCR2
Homo sapiens = organism: Homo sapiens; assay: Selectivity for human urotensin 2 receptor over human ERG
[31] = molecular target: Voltage-gated inwardly rectifying potassium channel KCNH2 (Homo sapiens, UniProt Q12809); assay: Inhibition of human ERG
Cytochrome P450 2D6 = Cytochrome P450 2D6 (Homo sapiens, UniProt P10635); assay: Inhibition of CYP2D6; assay type: ADME
Cytochrome P450 3A4 = Cytochrome P450 3A4 (Homo sapiens, UniProt P08684); assay: Inhibition of CYP3A4; assay type: ADME
[32] = Blood clearance in rat at 0.49 mg/kg, iv or 0.97 mg/kg, po; assay type: ADME, organism-based
[33] = Half life in rat at 0.49 mg/kg, iv or 0.97 mg/kg, po; assay type: ADME, organism-based; settings: in vivo
[34] = Oral bioavailability in rat at 0.97 mg/kg; assay type: ADME, organism-based; settings: in vivo

Chain of Voltage-gated inwardly rectifying potassium channel KCNH2 (Q12809 whole entry): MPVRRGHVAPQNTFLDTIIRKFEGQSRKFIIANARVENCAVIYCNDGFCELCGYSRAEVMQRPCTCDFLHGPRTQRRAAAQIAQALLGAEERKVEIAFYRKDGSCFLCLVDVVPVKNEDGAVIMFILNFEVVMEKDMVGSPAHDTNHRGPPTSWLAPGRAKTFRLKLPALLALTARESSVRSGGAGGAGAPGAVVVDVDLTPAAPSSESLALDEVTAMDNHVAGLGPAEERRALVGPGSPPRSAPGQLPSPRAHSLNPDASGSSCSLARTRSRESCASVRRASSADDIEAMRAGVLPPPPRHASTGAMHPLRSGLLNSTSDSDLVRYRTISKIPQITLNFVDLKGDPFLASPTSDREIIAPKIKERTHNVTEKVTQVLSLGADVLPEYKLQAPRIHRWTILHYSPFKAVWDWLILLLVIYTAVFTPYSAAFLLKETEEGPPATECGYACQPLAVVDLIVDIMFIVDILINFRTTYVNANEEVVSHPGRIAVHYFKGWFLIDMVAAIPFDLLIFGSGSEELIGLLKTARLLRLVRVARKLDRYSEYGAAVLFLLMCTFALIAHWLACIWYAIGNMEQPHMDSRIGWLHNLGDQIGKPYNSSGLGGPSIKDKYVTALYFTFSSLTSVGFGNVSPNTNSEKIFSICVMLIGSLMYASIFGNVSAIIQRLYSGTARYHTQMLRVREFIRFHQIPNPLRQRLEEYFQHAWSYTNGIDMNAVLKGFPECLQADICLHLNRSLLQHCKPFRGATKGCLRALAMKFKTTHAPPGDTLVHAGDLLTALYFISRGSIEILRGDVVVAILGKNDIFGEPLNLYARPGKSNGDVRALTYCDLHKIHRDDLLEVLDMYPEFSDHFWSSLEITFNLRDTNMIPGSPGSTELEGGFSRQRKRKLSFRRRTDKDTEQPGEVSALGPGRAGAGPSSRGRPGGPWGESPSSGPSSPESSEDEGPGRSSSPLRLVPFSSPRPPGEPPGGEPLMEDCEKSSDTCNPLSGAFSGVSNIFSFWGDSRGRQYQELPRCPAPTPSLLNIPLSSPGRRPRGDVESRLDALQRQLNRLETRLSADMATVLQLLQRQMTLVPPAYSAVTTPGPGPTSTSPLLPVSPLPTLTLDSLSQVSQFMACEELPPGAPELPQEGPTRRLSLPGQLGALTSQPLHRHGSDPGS
Chain of Cytochrome P450 3A4 (P08684 whole entry): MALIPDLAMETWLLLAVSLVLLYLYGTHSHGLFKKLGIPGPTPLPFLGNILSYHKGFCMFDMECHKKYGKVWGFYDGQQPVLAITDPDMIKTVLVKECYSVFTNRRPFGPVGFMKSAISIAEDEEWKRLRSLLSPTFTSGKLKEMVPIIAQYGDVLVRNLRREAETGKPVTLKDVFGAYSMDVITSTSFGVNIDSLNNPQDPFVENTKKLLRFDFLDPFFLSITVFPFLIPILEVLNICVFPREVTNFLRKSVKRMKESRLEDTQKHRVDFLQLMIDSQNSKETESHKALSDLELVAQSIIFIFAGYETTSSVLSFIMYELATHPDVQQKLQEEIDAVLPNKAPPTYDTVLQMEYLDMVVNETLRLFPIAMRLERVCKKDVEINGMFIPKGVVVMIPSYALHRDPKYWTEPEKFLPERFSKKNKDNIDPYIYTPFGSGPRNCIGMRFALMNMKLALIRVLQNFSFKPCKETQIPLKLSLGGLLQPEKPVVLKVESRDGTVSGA
Chain of Cytochrome P450 2D6 (P10635 whole entry): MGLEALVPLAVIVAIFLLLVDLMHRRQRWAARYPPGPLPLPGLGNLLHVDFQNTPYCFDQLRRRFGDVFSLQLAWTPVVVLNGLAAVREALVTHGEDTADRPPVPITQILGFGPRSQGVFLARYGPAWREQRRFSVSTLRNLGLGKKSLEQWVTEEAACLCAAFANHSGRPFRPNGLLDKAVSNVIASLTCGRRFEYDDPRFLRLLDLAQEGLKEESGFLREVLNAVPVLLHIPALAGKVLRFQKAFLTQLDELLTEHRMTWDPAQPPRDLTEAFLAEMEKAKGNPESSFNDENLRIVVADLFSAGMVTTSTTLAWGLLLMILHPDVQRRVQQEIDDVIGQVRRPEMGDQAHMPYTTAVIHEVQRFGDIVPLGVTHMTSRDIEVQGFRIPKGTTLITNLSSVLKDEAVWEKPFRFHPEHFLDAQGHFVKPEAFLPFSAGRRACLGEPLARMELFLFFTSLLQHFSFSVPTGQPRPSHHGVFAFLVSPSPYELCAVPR

## CCCCNc1ccnc2[nH]c3ccc(Cl)cc3c12
Urotensin-2 receptor [1]
  Ki: 50.1 nM

## CCCCN(CCCC)c1nccc2[nH]c3ccccc3c12
Urotensin-2 receptor [1]
  Ki: 794 nM

## CCCCNc1nccc2c1c1ccccc1n2C(C)C
Urotensin-2 receptor [1]
  Ki: 63.1 nM

## CCC(C)CNc1nccc2[nH]c3ccccc3c12 (centres undefined)
Urotensin-2 receptor [1]
  Ki: 10 nM
Urotensin-2 receptor [2]
  Kb: 100 nM
Urotensin II receptor
  Ki: 1260 nM

## c1ccc(Nc2nccc3[nH]c4ccccc4c23)cc1
Urotensin-2 receptor [1]
  Ki: > 7940 nM

## c1ccc2c(c1)[nH]c1ccnc(NCCN3CCOCC3)c12
Urotensin-2 receptor [1]
  Ki: > 7940 nM

## NC(=O)CCNc1nccc2[nH]c3ccccc3c12
Urotensin-2 receptor [1]
  Ki: > 7940 nM

## CCCCCNc1nccc2[nH]c3ccccc3c12
Urotensin-2 receptor [1]
  Ki: 3.98 nM
Urotensin II receptor
  Ki: 398 nM

## CCCCNc1nccc2[nH]c3ccccc3c12
Urotensin-2 receptor [3]
  IC50: 501 nM
Urotensin-2 receptor [1]
  Ki: 3.98 nM
Urotensin-2 receptor [2]
  Kb: 100 nM
Urotensin II receptor
  Ki: 631 nM
[4]
  solubility: 195 µM (≈ 46.7 µg/mL)
[5]
  Papp: 47 ×10⁻⁶ cm/s
[6]
  Selectivity ratio: 100
[7]
  Selectivity ratio: 100
[8]
  Selectivity ratio: 100
[9]
  Selectivity ratio: 100
[10]
  Selectivity ratio: 100
[11]
  Selectivity ratio: 100
[12]
  Selectivity ratio: 100
[13]
  Selectivity ratio: 100
[14]
  Selectivity ratio: 100
[15]
  Selectivity ratio: 100
[16]
  Selectivity ratio: 100
[17]
  Selectivity ratio: 100
[18]
  Selectivity ratio: 100
[19]
  Selectivity ratio: 100
[20]
  Selectivity ratio: 100
[21]
  Selectivity ratio: 100
[22]
  Selectivity ratio: 100
[23]
  Selectivity ratio: 100
[24]
  Selectivity ratio: 100
[25]
  Selectivity ratio: 100
[26]
  Selectivity ratio: 100
[27]
  Selectivity ratio: 100
[28]
  Selectivity ratio: 100
[29]
  Selectivity ratio: 100
[30]
  Selectivity ratio: 100
Homo sapiens
  Selectivity ratio: 400
[31]
  IC50: 1580 nM
Cytochrome P450 2D6
  IC50: 7.94 nM
Cytochrome P450 3A4
  IC50: 100 nM
[32]
  clearance: 110 mL/min/kg
[33]
  half-life: 1.3 h
[34]
  bioavailability: 11%

## c1ccc2c(c1)[nH]c1ccnc(NCC3CC3)c12
Urotensin-2 receptor [1]
  Ki: 6.31 nM
Urotensin-2 receptor [2]
  Kb: 126 nM
Urotensin II receptor
  Ki: 2510 nM

## CCCCCCNc1nccc2[nH]c3ccccc3c12
Urotensin-2 receptor [1]
  Ki: 6.31 nM
Urotensin II receptor
  Ki: 200 nM

## c1csc(CNc2nccc3[nH]c4ccccc4c23)c1
Urotensin-2 receptor [1]
  Ki: 25.1 nM
Urotensin-2 receptor [2]
  Kb: 158 nM
Urotensin II receptor
  Ki: 3160 nM

## CCCCNc1nccc2c1c1ccccc1n2Cc1ccccc1
Urotensin-2 receptor [1]
  Ki: 3980 nM

## c1ccc2c(c1)[nH]c1ccnc(NCC3CCCO3)c12 (centres undefined)
Urotensin-2 receptor [1]
  Ki: 79.4 nM

## CC(C)CCNc1nccc2[nH]c3ccccc3c12
Urotensin-2 receptor [1]
  Ki: 12.6 nM
Urotensin II receptor
  Ki: 1580 nM

## c1ccc2c(c1)[nH]c1ccnc(NC3CC3)c12
Urotensin-2 receptor [1]
  Ki: 2510 nM

## CCNc1nccc2[nH]c3ccccc3c12
Urotensin-2 receptor [1]
  Ki: 1580 nM

## CCCC(C)Nc1nccc2[nH]c3ccccc3c12 (centres undefined)
Urotensin-2 receptor [1]
  Ki: 794 nM

## COCCNc1ccnc2[nH]c3ccccc3c12
Urotensin-2 receptor [1]
  Ki: 316 nM

## c1ccc2c(c1)[nH]c1nccc(NCC3CCCCC3)c12
Urotensin-2 receptor [1]
  Ki: 794 nM

## CCCCNc1ccnc2[nH]c3ccc(C)cc3c12
Urotensin-2 receptor [1]
  Ki: 63.1 nM

## c1ccc2c(c1)[nH]c1ccnc(NC3CCCCC3)c12
Urotensin-2 receptor [1]
  Ki: > 7940 nM

## CCOCCNc1nccc2[nH]c3ccccc3c12
Urotensin-2 receptor [1]
  Ki: 12.6 nM

## CCCCNc1ccnc2[nH]c3ccccc3c12
Urotensin-2 receptor [1]
  Ki: 79.4 nM

## c1ccc2c(c1)[nH]c1nccc(NCC3CC3)c12
Urotensin-2 receptor [1]
  Ki: 100 nM

## CCCCNc1ccnc2[nH]c3c(OC)cccc3c12
Urotensin-2 receptor [1]
  Ki: 31.6 nM

## CC(=O)NCCNc1nccc2[nH]c3ccccc3c12
Urotensin-2 receptor [1]
  Ki: > 7940 nM

## COCCNc1nccc2[nH]c3ccccc3c12
Urotensin-2 receptor [1]
  Ki: 20 nM

## c1ccc(CNc2nccc3[nH]c4ccccc4c23)cc1
Urotensin-2 receptor [1]
  Ki: 12.6 nM
Urotensin-2 receptor [2]
  Kb: 20 nM
Urotensin II receptor
  Ki: 1000 nM

## CCCNc1nccc2[nH]c3ccccc3c12
Urotensin-2 receptor [1]
  Ki: 25.1 nM

## CN(C)CCNc1nccc2[nH]c3ccccc3c12
Urotensin-2 receptor [1]
  Ki: > 7940 nM

## c1ccc(CCNc2nccc3[nH]c4ccccc4c23)cc1
Urotensin-2 receptor [1]
  Ki: 100 nM

## CCCCNc1nccc2c1c1ccccc1n2C
Urotensin-2 receptor [1]
  Ki: 50.1 nM
Urotensin II receptor
  Ki: 1000 nM

## c1ccc2c(c1)[nH]c1ccnc(NCC3CCCCC3)c12
Urotensin-2 receptor [1]
  Ki: 10 nM

## COCCN(C)c1nccc2[nH]c3ccccc3c12
Urotensin-2 receptor [1]
  Ki: > 7940 nM
